Consider 19 compounds from PubChem BioAssay AID248 (DTP/NCI, 2004).

“And” between values parts separate entries of the source, which are not always exact repeats. Identical values can stand only once. Inconclusive results and toxic doses are left out.

The test system of this experiment is L1210 leukemia ip in BDF1 mice, survival T/C. Put plainly: NCI In Vivo Anticancer Drug Screen. Data for tumor model L1210 Leukemia (intraperitoneal) in B6D2F1 (BDF1) mice. To be noted: endpoint: mean survival time, higher = longer survival. The gist of the method: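 Each compound was tested against a transplantable tumor grown in mice. The endpoint was survival, with treated animals benchmarked against vehicle controls as a simple ratio.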

[1] abbreviates: dose: 100.0 mg/kg/injection, schedule: Q01DX009 (ip), vehicle: Klucel (hydroxypropylcellulose) (HPC).
Where [2] appears, read: dose: 100.0 mg/kg/injection, schedule: Q04DX002 (ip), vehicle: Klucel (hydroxypropylcellulose) (HPC).
Where [3] appears, read: dose: 100.0 mg/kg/injection, schedule: Q04DX003 (ip), vehicle: Klucel (hydroxypropylcellulose) (HPC).
[4] abbreviates: dose: 200.0 mg/kg/injection, schedule: Q01DX009 (ip), vehicle: Klucel (hydroxypropylcellulose) (HPC).
The mark [5] stands for this setting: dose: 200.0 mg/kg/injection, schedule: Q04DX002 (ip), vehicle: Klucel (hydroxypropylcellulose) (HPC).
Setting [6] is: dose: 200.0 mg/kg/injection, schedule: Q04DX003 (ip), vehicle: Klucel (hydroxypropylcellulose) (HPC).
Where [7] appears, read: dose: 400.0 mg/kg/injection, schedule: Q01DX009 (ip), vehicle: Klucel (hydroxypropylcellulose) (HPC).
[8] abbreviates: dose: 400.0 mg/kg/injection, schedule: Q04DX002 (ip), vehicle: Klucel (hydroxypropylcellulose) (HPC).
The mark [9] stands for this setting: dose: 400.0 mg/kg/injection, schedule: Q04DX003 (ip), vehicle: Klucel (hydroxypropylcellulose) (HPC).
Where [10] appears, read: dose: 100.0 mg/kg/injection, schedule: Q04DX003 (ip), vehicle: saline with Tween-80.
Setting [11] is: dose: 200.0 mg/kg/injection, schedule: Q04DX003 (ip), vehicle: saline with Tween-80.
Where [12] appears, read: dose: 100.0 mg/kg/injection, schedule: Q01DX001 (ip), vehicle: saline.
[13] abbreviates: dose: 200.0 mg/kg/injection, schedule: Q01DX001 (ip), vehicle: saline.
The mark [14] stands for this setting: dose: 400.0 mg/kg/injection, schedule: Q01DX001 (ip), vehicle: saline.
Setting [15] is: dose: 100.0 mg/kg/injection, schedule: Q01DX001 (ip), vehicle: carboxymethylcellulose (CMC).
The mark [16] stands for this setting: dose: 200.0 mg/kg/injection, schedule: Q01DX001 (ip), vehicle: carboxymethylcellulose (CMC).
Setting [17] is: dose: 400.0 mg/kg/injection, schedule: Q01DX001 (ip), vehicle: carboxymethylcellulose (CMC).
[18] abbreviates: dose: 50.0 mg/kg/injection, schedule: Q01DX001 (ip), vehicle: saline.

As for `Cc1nc(Br)c(C(O)c2ccccc2)n1C` (stereo not drawn), the T/C runs as follows: under setting [1], 100 % of control and 103 % of control; under setting [2], 101 % of control and 103 % of control; under setting [3], 93 % of control; under setting [4], 95 % of control and 109 % of control; under setting [5], 101 % of control and 103 % of control; under setting [6], 97 % of control. Moreover, the T/C is, setting by setting: under setting [7], 95 % of control and 117 % of control; under setting [8], 98 % of control and 100 % of control; under setting [9], 95 % of control.
In the case of `O=C1c2ccccc2C(=O)N1C/C=C/Cl`, the T/C by setting is: under setting [10], 104 % of control; under setting [11], 108 % of control; (dose: 400.0 mg/kg/injection, schedule: Q04DX003 (ip), vehicle: saline with Tween-80) 101 % of control.
As for `C/C=C/C=C/COC(=O)CCCCCCC`, the T/C runs as follows: (dose: 25.0 mg/kg/injection, schedule: Q04DX002 (ip), vehicle: saline) 107 % of control; (dose: 50.0 mg/kg/injection, schedule: Q04DX002 (ip), vehicle: saline) 103 % of control; (dose: 100.0 mg/kg/injection, schedule: Q04DX002 (ip), vehicle: saline) 103 % of control; (dose: 200.0 mg/kg/injection, schedule: Q04DX002 (ip), vehicle: saline) 110 % of control and 112 % of control; (dose: 400.0 mg/kg/injection, schedule: Q04DX002 (ip), vehicle: saline) 100 % of control.
For `O=C(c1ccccc1)C(C(=O)c1ccccc1)C(c1ccccc1)C(C(=O)c1ccccc1)C(c1ccccc1)c1ccccc1` (stereo not drawn), the T/C was 87 % of control under setting [12]; 89 % of control under setting [13]; 92 % of control and 91 % of control under setting [14].
With `Cn1c(C[N+](C)(C)C)cc2ccccc21`, the T/C is 104 % of control under setting [10] and 96 % of control under setting [11].
With `CCCCCCP(=O)(CCCCCC)CCCCCC`, the T/C reads like this: (dose: 44.0 mg/kg/injection, schedule: Q01DX Z (ip), vehicle: methylcellulose (MC)) 89 % of control; (dose: 55.0 mg/kg/injection, schedule: Q01DX Z (ip), vehicle: methylcellulose (MC)) 161 % of control; (dose: 66.0 mg/kg/injection, schedule: Q01DX Z (ip), vehicle: methylcellulose (MC)) 93 % of control; (dose: 83.0 mg/kg/injection, schedule: Q01DX Z (ip), vehicle: methylcellulose (MC)) 172 % of control; (dose: 100.0 mg/kg/injection, schedule: Q01DX Z (ip), vehicle: methylcellulose (MC)) 96 % of control; under setting [3], 97 % of control. The T/C is 110 % of control under setting [6] and 90 % of control under setting [9].
For the compound `Cc1ccc(C)c(NC(=O)Nc2cccc(Cl)c2)c1`, the T/C is 93 % of control under setting [1]; 92 % of control under setting [3]; 96 % of control under setting [4]; 89 % of control under setting [6]; 91 % of control under setting [7]; 87 % of control under setting [9].
Regarding `O=C(CNc1ccc2c(c1)Cc1cc(Br)ccc1-2)c1ccc(Br)cc1`, the T/C under setting [15] was 105 % of control, the T/C under setting [16] was 111 % of control and the T/C under setting [17] is 105 % of control.
Take `COc1ccc(/C=C(\S)C(=O)O)cc1`: the T/C by setting is: under setting [12], 96 % of control; under setting [13], 118 % of control; (dose: 1040.0 mg/kg/injection, schedule: Q01DX001 (ip), vehicle: saline) 111 % of control.
In the case of `Fc1ccc(P(c2ccc(F)cc2)c2ccc(F)cc2)cc1`, the T/C by setting is: (dose: 25.0 mg/kg/injection, schedule: Q01DX009 (ip), vehicle: Klucel (hydroxypropylcellulose) (HPC)) 97 % of control; (dose: 50.0 mg/kg/injection, schedule: Q01DX009 (ip), vehicle: Klucel (hydroxypropylcellulose) (HPC)) 89 % of control; under setting [3], 103 % of control.
Take `Nc1nc(-c2cccnc2)nc2c1cnn2-c1ccccc1`: the T/C (dose: 100.0 mg/kg/injection, schedule: Q01DX001 (ip), vehicle: other) is 100 % of control; the T/C (dose: 100.0 mg/kg/injection, schedule: Q04DX003 (ip), vehicle: other) is 97 % of control; the T/C (dose: 200.0 mg/kg/injection, schedule: Q01DX001 (ip), vehicle: other) is 95 % of control; the T/C (dose: 200.0 mg/kg/injection, schedule: Q04DX003 (ip), vehicle: other) was 104 % of control; the T/C (dose: 400.0 mg/kg/injection, schedule: Q01DX001 (ip), vehicle: other) was 94 % of control; the T/C (dose: 400.0 mg/kg/injection, schedule: Q04DX003 (ip), vehicle: other) was 109 % of control.
Take `CCOC(=O)CCC(NC(=O)c1ccc(NCc2nnc3nc(N)nc(N)c3n2)cc1)C(=O)OCC` (stereo not drawn): the T/C runs as follows: (dose: 25.0 mg/kg/injection, schedule: Q01DX001 (ip), vehicle: saline with Tween-80) 100 % of control; (dose: 50.0 mg/kg/injection, schedule: Q01DX001 (ip), vehicle: saline with Tween-80) 95 % of control; (dose: 100.0 mg/kg/injection, schedule: Q01DX001 (ip), vehicle: saline with Tween-80) 107 % of control.
`CN(C)/N=N\c1nc[nH]c1C(=O)NN`: the T/C by setting is: under setting [18], 107 % of control; under setting [12], 101 % of control; under setting [13], 107 % of control; under setting [14], 110 % of control.
For the compound `COc1ccc(C2(OC)Oc3cc(OC)ccc3-c3nc4ccccc4nc32)cc1` (stereo not drawn), the T/C is 101 % of control under setting [18], 101 % of control under setting [12], 95 % of control under setting [13] and 101 % of control under setting [14].
`O=C1CCCC(c2ccccc2)O1` (stereo not drawn): the T/C under setting [2] was 108 % of control, the T/C under setting [5] was 101 % of control and the T/C under setting [8] was 101 % of control.
With `CCS(=O)(=O)N1CCCC(C)C1` (stereo not drawn), the T/C by setting is: (dose: 100.0 mg/kg/injection, schedule: Q04DX002 (ip), vehicle: saline with Tween-80) 105 % of control; (dose: 200.0 mg/kg/injection, schedule: Q04DX002 (ip), vehicle: saline with Tween-80) 92 % of control; (dose: 400.0 mg/kg/injection, schedule: Q04DX002 (ip), vehicle: saline with Tween-80) 92 % of control.
As for `CCCCP(=S)(CCCC)C1CCCC1`, the T/C is, setting by setting: under setting [3], 104 % of control; under setting [6], 107 % of control; under setting [9], 101 % of control.
`COc1cc(C2c3cc4c(cc3C(O)C(CO)C2CO)OCO4)cc(OC)c1OC` (stereo not drawn): the T/C (dose: 8.75 mg/kg/injection, schedule: Q01DX Z (ip), vehicle: carboxymethylcellulose (CMC)) was 100 % of control; the T/C (dose: 11.5 mg/kg/injection, schedule: Q01DX Z (ip), vehicle: carboxymethylcellulose (CMC)) is 108 % of control; the T/C (dose: 17.0 mg/kg/injection, schedule: Q01DX Z (ip), vehicle: carboxymethylcellulose (CMC)) was 113 % of control; the T/C (dose: 17.5 mg/kg/injection, schedule: Q01DX Z (ip), vehicle: carboxymethylcellulose (CMC)) is 114 % of control; the T/C (dose: 26.0 mg/kg/injection, schedule: Q01DX Z (ip), vehicle: carboxymethylcellulose (CMC)) is 120 % of control; the T/C (dose: 35.0 mg/kg/injection, schedule: Q01DX Z (ip), vehicle: carboxymethylcellulose (CMC)) is 106 % of control. Besides, the T/C runs as follows: (dose: 37.5 mg/kg/injection, schedule: Q04DX003 (ip), vehicle: saline) 98 % of control; (dose: 50.0 mg/kg/injection, schedule: Q01DX001 (ip), vehicle: carboxymethylcellulose (CMC)) 95 % of control; (dose: 70.0 mg/kg/injection, schedule: Q01DX Z (ip), vehicle: carboxymethylcellulose (CMC)) 98 % of control; (dose: 75.0 mg/kg/injection, schedule: Q04DX003 (ip), vehicle: saline) 118 % of control; under setting [15], 104 % of control; (dose: 140.0 mg/kg/injection, schedule: Q01DX Z (ip), vehicle: carboxymethylcellulose (CMC)) 100 % of control and 121 % of control. Further, the T/C was 110 % of control (dose: 150.0 mg/kg/injection, schedule: Q04DX003 (ip), vehicle: saline); 101 % of control under setting [16]; 105 % of control (dose: 280.0 mg/kg/injection, schedule: Q01DX Z (ip), vehicle: carboxymethylcellulose (CMC)); 98 % of control under setting [17].
`CCCC(CN(CCN(C)C)Cc1ccccc1)c1ccc(OC)cc1` (stereo not drawn): the T/C under setting [12] was 101 % of control.
